Values of other authors as cited in patent US12378302B2, “Fusion molecules and uses thereof” (Foundation Medicine, Inc., priority 2012, dated 2025).
Read-outs that look alike come from different tables or passages of the source.

How the values were obtained:
advanced cervical cancer = settings: Phase 2, pazopanib arm compared to lapatinib therapy
[1] = system: advanced urothelial cancer; settings: Phase 2, single agent
[2] = system: early stage NSCLC patients; settings: Phase 2 trial
all four Fgfr kinases [3] = system: all four Fgfr kinases
all four Fgfr kinases [4] = settings: preclinical studies
inactive form of ErbB4 = inactive form of ErbB4 (Homo sapiens, UniProt Q15303); settings: region conserved in all EGF family members
Sequence of inactive form of ErbB4 (Q15303 702-1029 limits assumed): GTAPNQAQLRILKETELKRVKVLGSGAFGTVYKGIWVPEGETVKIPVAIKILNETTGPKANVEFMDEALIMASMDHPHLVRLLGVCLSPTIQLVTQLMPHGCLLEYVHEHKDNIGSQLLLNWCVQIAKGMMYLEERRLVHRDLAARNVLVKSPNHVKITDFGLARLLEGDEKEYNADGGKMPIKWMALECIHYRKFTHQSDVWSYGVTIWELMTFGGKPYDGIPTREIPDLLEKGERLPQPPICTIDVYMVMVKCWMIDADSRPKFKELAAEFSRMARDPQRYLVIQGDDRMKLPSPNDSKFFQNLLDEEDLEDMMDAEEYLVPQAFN

ErbB3 = ErbB3 (Homo sapiens, UniProt P21860)
Sequence of ErbB3 (P21860 20-1342): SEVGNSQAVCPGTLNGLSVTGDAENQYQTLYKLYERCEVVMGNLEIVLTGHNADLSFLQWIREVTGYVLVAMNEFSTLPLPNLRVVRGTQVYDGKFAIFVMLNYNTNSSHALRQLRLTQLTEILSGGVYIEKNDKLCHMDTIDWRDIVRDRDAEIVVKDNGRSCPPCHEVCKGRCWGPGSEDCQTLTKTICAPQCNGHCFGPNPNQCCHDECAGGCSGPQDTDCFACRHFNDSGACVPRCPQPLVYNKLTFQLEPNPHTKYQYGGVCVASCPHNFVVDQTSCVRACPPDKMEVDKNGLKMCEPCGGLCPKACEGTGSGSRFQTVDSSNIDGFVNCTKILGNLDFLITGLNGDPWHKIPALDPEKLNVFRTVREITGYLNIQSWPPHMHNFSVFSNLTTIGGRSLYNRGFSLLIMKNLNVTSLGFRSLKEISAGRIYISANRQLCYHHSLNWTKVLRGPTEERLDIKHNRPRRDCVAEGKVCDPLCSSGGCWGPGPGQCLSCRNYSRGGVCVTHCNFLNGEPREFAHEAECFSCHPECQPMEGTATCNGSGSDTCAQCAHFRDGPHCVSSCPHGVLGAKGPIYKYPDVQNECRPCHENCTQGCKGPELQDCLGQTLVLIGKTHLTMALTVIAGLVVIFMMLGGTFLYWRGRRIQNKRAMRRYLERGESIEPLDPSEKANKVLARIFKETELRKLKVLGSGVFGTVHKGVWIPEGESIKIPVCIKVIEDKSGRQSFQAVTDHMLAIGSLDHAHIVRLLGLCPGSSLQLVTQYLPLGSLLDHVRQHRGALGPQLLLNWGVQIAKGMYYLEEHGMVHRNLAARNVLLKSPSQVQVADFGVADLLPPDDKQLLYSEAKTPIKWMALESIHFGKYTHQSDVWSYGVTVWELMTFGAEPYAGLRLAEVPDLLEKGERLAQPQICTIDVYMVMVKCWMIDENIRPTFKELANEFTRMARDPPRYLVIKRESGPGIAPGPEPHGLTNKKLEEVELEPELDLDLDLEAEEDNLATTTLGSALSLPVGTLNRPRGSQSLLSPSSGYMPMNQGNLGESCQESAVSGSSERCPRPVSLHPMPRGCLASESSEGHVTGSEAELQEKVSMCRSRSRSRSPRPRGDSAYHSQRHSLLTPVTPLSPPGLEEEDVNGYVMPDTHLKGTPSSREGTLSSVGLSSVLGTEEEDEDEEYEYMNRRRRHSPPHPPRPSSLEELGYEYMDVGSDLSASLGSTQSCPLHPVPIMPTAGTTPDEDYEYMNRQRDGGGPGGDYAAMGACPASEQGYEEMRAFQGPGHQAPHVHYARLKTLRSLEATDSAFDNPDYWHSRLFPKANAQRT

ErbB4 = molecular target: T1, ErbB4 (Homo sapiens, UniProt Q15303)
T1 construct: host or cells: glioblastoma cell lines
T1 sequence (Q15303 26-1308): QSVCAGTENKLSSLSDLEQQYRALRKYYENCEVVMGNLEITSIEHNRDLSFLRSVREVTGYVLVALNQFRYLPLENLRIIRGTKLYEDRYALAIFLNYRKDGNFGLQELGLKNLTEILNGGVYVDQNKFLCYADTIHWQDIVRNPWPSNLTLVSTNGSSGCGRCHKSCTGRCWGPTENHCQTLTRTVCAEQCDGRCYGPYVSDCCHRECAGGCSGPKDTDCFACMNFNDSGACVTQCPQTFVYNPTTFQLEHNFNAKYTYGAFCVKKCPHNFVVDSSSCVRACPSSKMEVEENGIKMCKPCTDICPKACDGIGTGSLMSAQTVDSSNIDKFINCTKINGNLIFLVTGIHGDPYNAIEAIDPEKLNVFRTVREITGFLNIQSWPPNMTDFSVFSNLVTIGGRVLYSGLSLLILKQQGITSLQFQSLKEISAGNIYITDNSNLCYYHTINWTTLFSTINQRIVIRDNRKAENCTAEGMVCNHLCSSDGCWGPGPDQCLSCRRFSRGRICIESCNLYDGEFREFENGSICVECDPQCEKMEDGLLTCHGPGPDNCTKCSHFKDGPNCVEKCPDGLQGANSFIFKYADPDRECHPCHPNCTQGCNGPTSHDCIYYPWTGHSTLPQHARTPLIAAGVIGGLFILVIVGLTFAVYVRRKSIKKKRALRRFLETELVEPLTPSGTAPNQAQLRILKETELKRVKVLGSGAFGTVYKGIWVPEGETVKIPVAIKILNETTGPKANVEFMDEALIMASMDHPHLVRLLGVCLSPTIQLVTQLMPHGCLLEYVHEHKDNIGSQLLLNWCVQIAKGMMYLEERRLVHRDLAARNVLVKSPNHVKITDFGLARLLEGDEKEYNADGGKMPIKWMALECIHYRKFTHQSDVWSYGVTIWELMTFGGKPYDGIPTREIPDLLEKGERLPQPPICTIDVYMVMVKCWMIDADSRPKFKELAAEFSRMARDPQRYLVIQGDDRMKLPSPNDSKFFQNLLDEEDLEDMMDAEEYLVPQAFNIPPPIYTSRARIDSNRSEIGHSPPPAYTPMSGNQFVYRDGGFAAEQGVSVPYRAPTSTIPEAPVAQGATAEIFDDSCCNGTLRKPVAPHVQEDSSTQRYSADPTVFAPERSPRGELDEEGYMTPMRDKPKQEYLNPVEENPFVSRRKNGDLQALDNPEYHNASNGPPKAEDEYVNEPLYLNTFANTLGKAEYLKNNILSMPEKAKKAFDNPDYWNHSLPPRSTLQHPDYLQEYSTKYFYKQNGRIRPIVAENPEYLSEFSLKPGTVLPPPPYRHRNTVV

Smad4-null cells = settings: pre-clinical mouse models
pancreatic cancer [5] = settings: Phase 2, gefitinib with gemcitabine
pancreatic cancer [6] = settings: Phase 2, pancreatic cancer
[7] = system: KIF5B-RET transformed cells; settings: Lipson et al
[8] = system: advanced non-small cell lung cancer

Cc1ccc(Nc2nccc(N(C)c3ccc4c(C)n(C)nc4c3)n2)cc1S(N)(=O)=O [pazopanib]
PFS and OS (advanced cervical cancer): improved PFS and OS | Disease control rate [1]: 51.2% | Partial responses (patients/enrolled) [1]: 7/41 | Stable disease (patients/enrolled) [1]: 14/41 | patients who achieved partial response [2]: 3 patients | patients who experienced a reduction in tumor volume ([2]; 30/35): 86%

Cc1ccc(C(=O)Nc2ccc(CN3CCN(C)CC3)c(C(F)(F)F)c2)cc1C#Cc1cnc2cccnn12 [ponatinib]
activity against all four Fgfr kinases (all four Fgfr kinases [3]): substantial activity | activity against all four Fgfr kinases (all four Fgfr kinases [4]): substantial activity

CS(=O)(=O)CCNCc1ccc(-c2ccc3ncnc(Nc4ccc(OCc5cccc(F)c5)c(Cl)c4)c3c2)o1 [lapatinib]
binding to ErbB4 (inactive form of ErbB4): bind an inactive form of ErbB4 | binding to ErbB3, preventing phosphorylation and therefore activation (ErbB3): bind | binding to ErbB4, preventing phosphorylation and therefore activation (ErbB4): bind | Akt/Erk pathway (glioblastoma cell lines): decrease | cell cycle (glioblastoma cell lines): cell cycle arrest

c1ccc(-c2nn3c(c2-c2ccnc4cc(OCCN5CCOCC5)ccc24)CCC3)nc1 [LY2109761, 7-(2-morpholinoethoxy)-4-(2-(pyridin-2-yl)-5,6-dihydro-4H-pyrrolo[1,2-b]pyrazol-3-yl)quinoline]
metastasis of Smad4-null cells (Smad4-null cells): block metastasis

COc1cc2ncnc(Nc3ccc(F)c(Cl)c3)c2cc1OCCCN1CCOCC1 [gefitinib]
instances of stable disease (pancreatic cancer [5]): 12/53 | responses (pancreatic cancer [5]): 6/53 | binding to ErbB3, preventing phosphorylation and therefore activation (ErbB3): bind | binding to ErbB4, preventing phosphorylation and therefore activation (ErbB4): bind | Akt/Erk pathway (glioblastoma cell lines): decrease | cell cycle (glioblastoma cell lines): cell cycle arrest | efficacy (pancreatic cancer [6]): some efficacy | sensitivity of KIF5B-RET transformed cells [7]: not | progression-free survival compared with combination chemotherapy ([8]; chemo-naïve patients with known EGFR mutations in their tumor): significant improvement in progression-free survival | survival benefit compared to placebo ([8]; patients who had progressed on first-line therapy): failed to show a survival benefit
